Holding throughout (test): growth of human tumour cells (NCI), 48 h
Assay [1] has as its system MALME-3M melanoma.
For assay [2], the system named is NCI-H522 lung.
In assay [3] the test system is SK-MEL-28 melanoma.
Assay [4] relates to OVCAR-3 ovarian.
The test system of assay [5] is U251 CNS.
In assay [6] the test system is MCF7 breast.
In assay [7] the test system is HS 578T breast.
Assay [8] relates to CCRF-CEM leukemia.
Assay [9] has as its system DU-145 prostate.
The subject of assay [10] is NCI-H226 lung.

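Where inhibition never reached the appropriate level, the endpoint shown equals the highest concentration tested. Otherwise, values were interpolated linearly from a five-concentration, 48-hour dose response in 96-well plates. GI50 is the concentration that inhibits growth by half. At the TGI there is no net growth.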

Consider `CNCCNc1c2c(c(NCCNC)c3c(CN(C)C)c[nH]c13)C(=O)c1ccccc1C2=O`, for which the GI50 in assay [1] was 6.73 µM; in [2], 0.514 µM; in assay [3] it was 9.59 µM; in [4], 1.03 µM; in assay [5] it was 2.95 µM; in [6], 0.922 µM. For the same compound, the GI50 in [7] is 1.7 µM; in assay [8], 0.716 µM; in [9], 1.53 µM; in assay [10], 6.69 µM. Also, the TGI is 15.5 µM in assay [1]; 3.59 µM in assay [2]; 26.4 µM in assay [3]; 6.8 µM in [4]; 13.8 µM in [5]; 6.7 µM in [6]. Moreover, the TGI in [7] is 7.92 µM; in assay [8], 34.2 µM; in assay [9] it was 5.93 µM; in assay [10], 24.2 µM.
For `Cc1nc2ccccc2c(=O)n1NC(=O)c1ccc(CS)cc1`, the TGI in [1] turned out to be 69.9 µM; in assay [2] it was 27 µM; in assay [3] it was 28.8 µM; in [4], 30.6 µM; in [5], 23.3 µM; in [6], 26.2 µM. In addition, the TGI in assay [7] stood at 95.4 µM; in [8], 3.6 µM; in assay [9], 88.2 µM; in [10], 14.2 µM.
Take `O=C(CCCn1ccnc1[N+](=O)[O-])NCCn1cncc1[N+](=O)[O-]`: the TGI in assay [1], in [2], in assay [3], in [4], in assay [5] and in [6] was above 100 µM throughout. The TGI in assay [7], in [8], in [9] and in [10] was above 100 µM each time.
As to `CC(C)c1ccc(Nc2ccc3c(OCCCN4CCN(C)CC4)cccc3n2)cc1`, the GI50 in assay [1] is 3.66 µM; in assay [2] it was 19.9 µM; in [3], 1.89 µM; in [4] it was 14.4 µM; in assay [5] it was 3.28 µM; in assay [6], 3.21 µM. The GI50 in assay [7] is 16.9 µM; in assay [8] it was 3.74 µM; in assay [9], 13.9 µM; in [10], 18.8 µM. The TGI came to 16.6 µM in [1]; 39.7 µM in [2]; 4.32 µM in assay [3]; 27.5 µM in assay [4]; 10.3 µM in [5]; 15 µM in assay [6]. In addition, the TGI was found to be 40.3 µM in assay [7], 21.3 µM in assay [8], 26.9 µM in assay [9] and 38.7 µM in assay [10].
Regarding `COc1cc(Nc2cn[nH]c2-c2ccc(Cl)cc2)cc(OC)c1OC`, the GI50 in assay [1] was 4.51 µM; in assay [2] it was 6.81 µM; in assay [3] it was 6.45 µM; in assay [4] it was 3.44 µM; in assay [5] it was 4.91 µM; in [6], 3.3 µM. For the same compound, the GI50 in assay [7] is 3.88 µM; in assay [8], 3.42 µM; in assay [9], 8.73 µM; in [10], 11.7 µM. The TGI in assay [1] stood at 45.8 µM; in assay [2], 37.5 µM; in [3], 56.7 µM; in [4], 14.4 µM; in assay [5], 33.3 µM; in [6] it was 53.2 µM. Also, the TGI in assay [7] was 63.1 µM; in [8] it was above 81.9 µM; in [9], 42 µM; in [10], 30.4 µM.
As for `Cc1c2cccnc2c(C)c2c1c1cc(CO)ccc1n2C`, the GI50 in assay [1] is 1.93 µM; in [2], 1.98 µM; in [3], 3.01 µM; in assay [4], 2.38 µM; in assay [5], 1.93 µM; in assay [6] it was 0.501 µM. The GI50 is 3.38 µM in assay [7], 1.87 µM in assay [8], 3.09 µM in [9] and 0.264 µM in assay [10]. The TGI in assay [1] came out at 7.82 µM; in assay [2], 6.53 µM; in [3] it was 10.9 µM; in assay [5], 11 µM; in assay [6] it was 12.7 µM; in assay [7] it was 34.5 µM. Further, the results for the TGI in [8], in assay [9] and in assay [10] were 45.7 µM, 11.9 µM and 1.33 µM, respectively.
Take `COc1ccc2c(c1)C(C)Cc1c(Cl)ncnc1N2C` (centres undefined): the GI50 is 0.294 µM in assay [1]; 1.41 µM in [2]; 0.368 µM in assay [3]; 0.268 µM in assay [4]; 0.478 µM in assay [5]; 0.328 µM in [6]. Moreover, the GI50 is 0.533 µM in assay [7], 2.14 µM in [8], 3.41 µM in assay [9] and 0.213 µM in assay [10]. Moreover, the TGI in assay [1] was 3.63 µM; in [2], 4.02 µM; in assay [3], 46.1 µM; in [4] it was 0.75 µM; in assay [5], above 86.4 µM; in assay [6], above 21.9 µM. The TGI is 38.1 µM in assay [7], above 55.8 µM in assay [8], above 74.1 µM in [9] and 0.481 µM in assay [10].
